Test results: patent US10723705B2, “Heterocyclic compounds and uses thereof” (Incyte Corporation, priority 2015, dated 2020)

The compounds below were run against Human recombinant Histone Deacetylase 8 (HDAC8) (Homo sapiens (Human), UniProt Q9BY41) (assay: HDAC8 Enzymatic Assay (HDAC-Glo I/II luminescence)). Conditions: HDAC8; read-out: IC50.
Format: biochemical
Description: HDAC-Glo™ I/II Assay Kit was purchased from Promega Corporation (Madison, Wis.), including the following components: HDAC-Glo I/II Buffer (25 mM Tris buffer, pH 8.0, supplemented with 137 mM: NaCl, 2.7 mM KCl, 1% v/v Triton X-100 and 1 mM: MgCl2), luminogenic substrates Boc-GAK(Ac)-aminoluciferin (HDAC-Glo I/II substrate), proprietary developer reagent (containing trypsin). Human recombinant Histone Deacetylase 8 (HDAC8) was purchased from Enzo Life Sciences (Plymouth Meeting, Pa.).
The HDAC8 reaction was performed at room temperature in white 384-well polystyrene, flat-bottom microtiter plate (Greiner Bio-one, Monroe, N.C.) in a final volume of 20 μL. Test compounds were first diluted serially in DMSO and 100 nL were transferred to the plate wells by Echo 550 (Labcyte, Sunnyvale, Calif.) before the addition of other reaction components. The final concentration of DMSO in the assay was 0.5%. The HDAC-Glo I/II assay reagent was prepared by rehydration of lyophilized HDAC-Glo I/II substrate in 10 mL. HDAC-Glo I/II assay buffer followed with the addition of 10 μL of developer reagent. 10 uL of 3 nM HDAC8 in the HDAC-Glo I/II assay buffer were first dispensed into the microliter plate containing the compounds and incubated at room temperature for 30 min. The reactions were initiated with the addition of 10 uL HDAC-Glo I/II assay reagent with Multidrop (Thermo, Waltham, Mass.). The final concentration of HDAC8 and HDAC-Glo I/II substrate in the reaction were 1.5 nM and 50 μM, respectively. The assay plate was mixed for 1 min by orbital shaking (500 rpm) and centrifuged for 1 min at 1500 rpm. After 15 min at room temperature, luminescence signals were measured on TopCount (Perkin Elmer). Wells with no compound served as the positive controls and wells containing no HDAC8 were used as negative controls. IC50 determination was performed by fitting the curve of percentage control activity versus the log of the compound concentration using the GraphPad Prism 6.0 software.

Sequence of Human recombinant Histone Deacetylase 8 (HDAC8) (Q9BY41 whole entry): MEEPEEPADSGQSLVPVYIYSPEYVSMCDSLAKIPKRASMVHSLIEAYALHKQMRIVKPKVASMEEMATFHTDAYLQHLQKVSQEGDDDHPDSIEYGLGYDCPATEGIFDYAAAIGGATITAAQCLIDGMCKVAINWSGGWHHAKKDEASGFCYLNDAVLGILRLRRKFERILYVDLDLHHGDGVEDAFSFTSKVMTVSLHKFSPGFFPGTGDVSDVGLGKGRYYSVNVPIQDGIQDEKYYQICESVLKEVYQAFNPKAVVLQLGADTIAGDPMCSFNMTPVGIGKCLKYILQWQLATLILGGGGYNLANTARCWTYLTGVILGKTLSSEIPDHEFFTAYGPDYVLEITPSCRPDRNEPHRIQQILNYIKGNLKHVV

Q: `O=C(NO)C(Cc1ccccc1)c1cnc2cc(Cl)ccn12` (centres unmarked) [Compound I-0093, 2-(7-Chloroimidazo[1,2-a]pyridin-3-yl)-N-hydroxy-3-phenylpropanamide] was tested. Which IC50 did it give?
A: 22 nM

Same assay, conditions: class symbols, Table 14; read-out: HDAC8 IC50

Q: How did the IC50 turn out when `Cn1nccc1-c1ccc2c(cnn2C(Cc2ccccc2)C(=O)NO)n1` (centres unmarked) [Compound I-0072, N-hydroxy-2-(5-(1-methyl-1H-pyrazol-5-yl)-1H-pyrazolo[4,3-b]pyridin-1-yl)-3-phenylpropanamide] was run?
A: 200 to 500 nM

Q: How did the IC50 turn out when `O=C(NO)C(Cc1ccccc1)n1ncc2nc(-c3ccncc3)ccc21` (centres unmarked) [Compound I-0073, N-hydroxy-3-phenyl-2-(5-(pyridin-4-yl)-1H-pyrazolo[4,3-b]pyridin-1-yl)propanamide] was run?
A: 200 to 500 nM

Q: With `O=C(NO)C(Cc1ccccc1)n1ncc2nc(-c3cncnc3)ccc21` (centres unmarked) [Compound I-0074, N-hydroxy-3-phenyl-2-(5-(pyrimidin-5-yl)-1H-pyrazolo[4,3-b]pyridin-1-yl)propanamide] as the compound, how does the IC50 read?
A: 50 to 200 nM

Q: For `Cc1ccc2c(cnn2C(Cc2ccccc2)C(=O)NO)n1` (centres unmarked) [Compound I-0075, N-hydroxy-2-(5-methyl-1H-pyrazolo[4,3-b]pyridin-1-yl)-3-phenylpropanamide], which IC50 is on record?
A: 200 to 500 nM

Q: With `O=C(NO)C(Cc1ccccc1)n1ncc2nc(Cl)ccc21` (centres unmarked) [Compound I-0076, 2-(5-chloro-1H-pyrazolo[4,3-b]pyridin-1-yl)-N-hydroxy-3-phenylpropanamide] as the compound, how does the IC50 read?
A: 50 to 200 nM

Q: `O=C(NO)C(Cc1ccccc1)n1cc2nc(Cl)ccc2n1` (centres unmarked) [Compound I-0077, 2-(5-chloro-2H-pyrazolo[4,3-b]pyridin-2-yl)-N-hydroxy-3-phenylpropanamide] was tested. Which IC50 did it give?
A: > 500 nM

Q: How did the IC50 turn out when `Cc1cccc2cn(C(Cc3ccccc3)C(=O)NO)nc12` (centres unmarked) [Compound I-0078, N-hydroxy-2-(7-methyl-2H-indazol-2-yl)-3-phenylpropanamide] was run?
A: > 500 nM

Q: Which IC50 does the source give for `O=C(NO)C(Cc1ccccc1)n1ncc2c(-c3ccccc3)cccc21` (centres unmarked) [Compound I-0079, N-hydroxy-3-phenyl-2-(4-phenyl-1H-indazol-1-yl)propanamide] here?
A: > 500 nM

Q: With `NC(=O)c1ccc(-c2cccc3c2cnn3C(Cc2ccccc2)C(=O)NO)cc1` (centres unmarked) [Compound I-0080, 4-(1-(1-(hydroxyamino)-1-oxo-3-phenylpropan-2-yl)-1H-indazol-4-yl)benzamide] as the compound, how does the IC50 read?
A: > 500 nM

Q: `O=C(NO)C(Cc1ccccc1)n1ncc2c(-c3cncnc3)cccc21` (centres unmarked) [Compound I-0081, N-hydroxy-3-phenyl-2-(4-(pyrimidin-5-yl)-1H-indazol-1-yl)propanamide] was tested. Which IC50 did it give?
A: 50 to 200 nM

Q: Which IC50 does the source give for `O=C(NO)C(Cc1ccccc1)n1cc2cccc(C#CC3CC3)c2n1` (centres unmarked) [Compound I-0082, 2-(7-(Cyclopropylethynyl)-2H-indazol-2-yl)-N-hydroxy-3-phenylpropanamide] here?
A: 200 to 500 nM

Q: How did the IC50 turn out when `Cn1nccc1-c1cccc2c1cnn2C(Cc1ccccc1)C(=O)NO` (centres unmarked) [Compound I-0083, N-hydroxy-2-(4-(1-methyl-1H-pyrazol-5-yl)-1H-indazol-1-yl)-3-phenylpropanamide] was run?
A: 50 to 200 nM

Q: Which IC50 does the source give for `Cc1cccc2c1cnn2C(Cc1ccccc1)C(=O)NO` (centres unmarked) [Compound I-0084, N-hydroxy-2-(4-methyl-1H-indazol-1-yl)-3-phenylpropanamide] here?
A: > 500 nM

Q: How did the IC50 turn out when `CN1CC=C(c2cccc3c2cnn3C(Cc2ccccc2)C(=O)NO)CC1` (centres unmarked) [Compound I-0085, N-hydroxy-2-(4-(1-methyl-1,2,3,6-tetrahydropyridin-4-yl)-1H-indazol-1-yl)-3-phenylpropanamide] was run?
A: 200 to 500 nM

Q: `O=C(NO)C(Cc1ccccc1)n1ncc2cc(-c3ccccc3)ncc21` (centres unmarked) [Compound I-0086, N-hydroxy-3-phenyl-2-(5-phenyl-1H-pyrazolo[3,4-c]pyridin-1-yl)propanamide] was tested. Which IC50 did it give?
A: > 500 nM

Q: Which IC50 does the source give for `O=C(NO)C(Cc1ccccc1)n1ncc2cc(-c3c(F)cccc3F)ncc21` (centres unmarked) [Compound I-0087, 2-(5-(2,6-difluorophenyl)-1H-pyrazolo[3,4-c]pyridin-1-yl)-N-hydroxy-3-phenylpropanamide] here?
A: > 500 nM

Q: Which IC50 does the source give for `N#Cc1ccc(-c2cc3cnn(C(Cc4ccccc4)C(=O)NO)c3cn2)cc1` (centres unmarked) [Compound I-0088, 2-(5-(4-cyanophenyl)-1H-pyrazolo[3,4-c]pyridin-1-yl)-N-hydroxy-3-phenylpropanamide] here?
A: > 500 nM

Q: How did the IC50 turn out when `NC(=O)c1ccc(-c2cc3cnn(C(Cc4ccccc4)C(=O)NO)c3cn2)cc1` (centres unmarked) [Compound I-0089, 4-(1-(1-(hydroxyamino)-1-oxo-3-phenylpropan-2-yl)-1H-pyrazolo[3,4-c]pyridin-5-yl)benzamide] was run?
A: 200 to 500 nM

Q: With `Cn1nccc1-c1cc2cnn(C(Cc3ccccc3)C(=O)NO)c2cn1` (centres unmarked) [Compound I-0090, N-hydroxy-2-(5-(1-methyl-1H-pyrazol-5-yl)-1H-pyrazolo[3,4-c]pyridin-1-yl)-3-phenylpropanamide] as the compound, how does the IC50 read?
A: 200 to 500 nM

Q: With `Cn1cc(-c2cc3cnn(C(Cc4ccccc4)C(=O)NO)c3cn2)cn1` (centres unmarked) [Compound I-0091, N-hydroxy-2-(5-(1-methyl-1H-pyrazol-4-yl)-1H-pyrazolo[3,4-c]pyridin-1-yl)-3-phenylpropanamide] as the compound, how does the IC50 read?
A: > 500 nM

Q: With `O=C(NO)C(Cc1ccccc1)n1ncc2cc(-c3cncnc3)ncc21` (centres unmarked) [Compound I-0092, N-hydroxy-3-phenyl-2-(5-(pyrimidin-5-yl)-1H-pyrazolo[3,4-c]pyridin-1-yl)propanamide] as the compound, how does the IC50 read?
A: 200 to 500 nM

Q: How did the IC50 turn out when `O=C(NO)C(Cc1ccccc1)c1cnc2cc(Cl)ccn12` (centres unmarked) [Compound I-0093, 2-(7-Chloroimidazo[1,2-a]pyridin-3-yl)-N-hydroxy-3-phenylpropanamide] was run?
A: ≤ 50 nM

Q: Which IC50 does the source give for `COc1ncc(-c2cc3cnn(C(Cc4ccccc4)C(=O)NO)c3cn2)cn1` (centres unmarked) [Compound I-0094, N-hydroxy-2-(5-(2-methoxypyrimidin-5-yl)-1H-pyrazolo[3,4-c]pyridin-1-yl)-3-phenylpropanamide] here?
A: 200 to 500 nM

Q: How did the IC50 turn out when `O=C(NO)C(Cc1ccccc1)n1ncc2cc(-c3cccnc3)ncc21` (centres unmarked) [Compound I-0095, N-hydroxy-3-phenyl-2-(5-(pyridin-3-yl)-1H-pyrazolo[3,4-c]pyridin-1-yl)propanamide] was run?
A: 200 to 500 nM

Q: `COc1ccc(-c2cc3cnn(C(Cc4ccccc4)C(=O)NO)c3cn2)cn1` (centres unmarked) [Compound I-0096, N-hydroxy-2-(5-(6-methoxypyridin-3-yl)-1H-pyrazolo[3,4-c]pyridin-1-yl)-3-phenylpropanamide] was tested. Which IC50 did it give?
A: > 500 nM

Q: With `O=C(NO)C(Cc1ccccc1)n1ncc2cc(-c3ccncc3)ncc21` (centres unmarked) [Compound I-0097, N-hydroxy-3-phenyl-2-(5-(pyridin-4-yl)-1H-pyrazolo[3,4-c]pyridin-1-yl)propanamide] as the compound, how does the IC50 read?
A: > 500 nM

Q: `O=C(NO)C(Cc1ccccc1)n1ncc2cc(C3CC3)ncc21` (centres unmarked) [Compound I-0098, 2-(5-cyclopropyl-1H-pyrazolo[3,4-c]pyridin-1-yl)-N-hydroxy-3-phenylpropanamide] was tested. Which IC50 did it give?
A: > 500 nM

Q: Which IC50 does the source give for `O=C(NO)C(Cc1ccccc1)n1ncc2cc(Br)ncc21` (centres unmarked) [Compound I-0099, 2-(5-bromo-1H-pyrazolo[3,4-c]pyridin-1-yl)-N-hydroxy-3-phenylpropanamide] here?
A: > 500 nM

Q: With `O=C(NO)C(Cc1ccccc1)n1cc2cc(Br)ncc2n1` (centres unmarked) [Compound I-0100, 2-(5-bromo-2H-pyrazolo[3,4-c]pyridine-2-yl)-N-hydroxy-3-phenylpropanamide] as the compound, how does the IC50 read?
A: > 500 nM

Q: For `CN1CC=C(c2cccc3cn(C(Cc4ccccc4)C(=O)NO)nc23)CC1` (centres unmarked) [Compound I-0101, N-hydroxy-2-(7-(1-methyl-1,2,3,6-tetrahydropyridin-4-yl)-2H-indazol-2-yl)-3-phenylpropanamide], which IC50 is on record?
A: > 500 nM

Q: For `O=C(NO)C(Cc1ccccc1)n1ncc2ccccc21` (centres unmarked) [Compound I-0102, N-hydroxy-2-(1H-indazol-1-yl)-3-phenylpropanamide], which IC50 is on record?
A: > 500 nM

Q: How did the IC50 turn out when `Cc1nn(C)c(C)c1-c1ccc2c(cnn2C(Cc2ccccc2)C(=O)NO)c1` (centres unmarked) [Compound I-0103, N-hydroxy-3-phenyl-2-(5-(1,3,5-trimethyl-1H-pyrazol-4-yl)-1H-indazol-1-yl)propanamide] was run?
A: 200 to 500 nM

Q: For `O=C(NO)C(Cc1ccccc1)n1ncc2cc(-c3cccnc3)ccc21` (centres unmarked) [Compound I-0104, N-hydroxy-3-phenyl-2-(5-(pyridin-3-yl)-1H-indazol-1-yl)propanamide], which IC50 is on record?
A: 50 to 200 nM

Q: With `Cn1cc(-c2ccc3c(cnn3C(Cc3ccccc3)C(=O)NO)c2)cn1` (centres unmarked) [Compound I-0105, N-hydroxy-2-(5-(1-methyl-1H-pyrazol-4-yl)-1H-indazol-1-yl)-3-phenylpropanamide] as the compound, how does the IC50 read?
A: 50 to 200 nM

Q: How did the IC50 turn out when `CN(C)C(=O)c1ccc(-c2ccc3c(cnn3C(Cc3ccccc3)C(=O)NO)c2)cc1` (centres unmarked) [Compound I-0106, 4-(1-(1-(hydroxyamino)-1-oxo-3-phenylpropan-2-yl)-1H-indazol-5-yl)-N,N-dimethylbenzamide] was run?
A: 200 to 500 nM

Q: `N/C(=N\O)c1cccc(-c2ccc3c(cnn3C(Cc3ccccc3)C(=O)NO)c2)c1` (centres unmarked) [Compound I-0107, (Z)-N-hydroxy-2-(5-(3-(N′-hydroxy-carbamimid-oyl)phenyl)-1H-indazol-1-yl)-3-phenylpropanamide] was tested. Which IC50 did it give?
A: 50 to 200 nM

Q: For `Cn1cc(-c2cccc3cn(C(Cc4ccccc4)C(=O)NO)nc23)cn1` (centres unmarked) [Compound I-0109, N-hydroxy-2-(7-(1-methyl-1H-pyrazol-4-yl)-2H-indazol-2-yl)-3-phenylpropanamide], which IC50 is on record?
A: 200 to 500 nM
